The record followed here is patent publication US9573987B2 (priority 2011, dated 2017).

Where “and” joins values, the source holds several entries; their conditions need not be identical. Equal entries are not always repeated. *1 amine or outer side, *2 acyl side, *3 side chain or, on linkers, in order; H or OH if unused. Where a SMILES comes first, the peptide text is derived from it. Side-chain parts run from the residue outwards. [ ]: non-standard residue; d: D form. Phe(4-NH2) = Nc1ccc(C[C@H](N)C(=O)O)cc1; d(εLys) = N[C@H](CCCCN[*:1])C(=O)[*:2]; εLys = N[C@@H](CCCCN[*:1])C(=O)[*:2]; NMeA = CN[C@@H](C)C(=O)O; Sar = CNCC(=O)O

The target of one series is IGF-1 receptor (Homo sapiens, UniProt P08069). The series can be described thus: IGF-1 receptor binding assay (competition, scintillation proximity). More on the design: expressed in transfected cells; plasma membrane fragments. The conditions noted are these: Table 9. Background: In a scintillation proximity assay essentially only radioactivity close to the scintillant gives light.
Sequence of IGF-1 receptor (P08069 31-736 limits assumed): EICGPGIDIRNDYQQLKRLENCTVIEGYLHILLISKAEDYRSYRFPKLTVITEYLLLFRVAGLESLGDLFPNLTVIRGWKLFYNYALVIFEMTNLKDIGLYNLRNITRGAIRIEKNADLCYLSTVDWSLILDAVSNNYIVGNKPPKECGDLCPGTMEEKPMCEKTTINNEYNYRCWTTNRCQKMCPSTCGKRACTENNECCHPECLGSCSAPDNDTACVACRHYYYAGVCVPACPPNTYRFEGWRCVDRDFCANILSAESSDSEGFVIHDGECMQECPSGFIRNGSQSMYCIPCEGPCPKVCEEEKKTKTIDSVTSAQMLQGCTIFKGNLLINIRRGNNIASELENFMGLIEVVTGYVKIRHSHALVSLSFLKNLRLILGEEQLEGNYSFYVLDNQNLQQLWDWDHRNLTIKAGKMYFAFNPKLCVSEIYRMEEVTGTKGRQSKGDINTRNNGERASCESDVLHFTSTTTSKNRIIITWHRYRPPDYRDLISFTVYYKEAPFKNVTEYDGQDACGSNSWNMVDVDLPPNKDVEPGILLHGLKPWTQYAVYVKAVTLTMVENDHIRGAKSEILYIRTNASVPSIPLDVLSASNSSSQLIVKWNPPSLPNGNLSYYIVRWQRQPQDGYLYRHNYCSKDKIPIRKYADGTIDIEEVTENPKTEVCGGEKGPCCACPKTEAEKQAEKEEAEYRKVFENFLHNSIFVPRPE
Sequence of IGF-1 receptor (P08069 741-1367 partner limits assumed): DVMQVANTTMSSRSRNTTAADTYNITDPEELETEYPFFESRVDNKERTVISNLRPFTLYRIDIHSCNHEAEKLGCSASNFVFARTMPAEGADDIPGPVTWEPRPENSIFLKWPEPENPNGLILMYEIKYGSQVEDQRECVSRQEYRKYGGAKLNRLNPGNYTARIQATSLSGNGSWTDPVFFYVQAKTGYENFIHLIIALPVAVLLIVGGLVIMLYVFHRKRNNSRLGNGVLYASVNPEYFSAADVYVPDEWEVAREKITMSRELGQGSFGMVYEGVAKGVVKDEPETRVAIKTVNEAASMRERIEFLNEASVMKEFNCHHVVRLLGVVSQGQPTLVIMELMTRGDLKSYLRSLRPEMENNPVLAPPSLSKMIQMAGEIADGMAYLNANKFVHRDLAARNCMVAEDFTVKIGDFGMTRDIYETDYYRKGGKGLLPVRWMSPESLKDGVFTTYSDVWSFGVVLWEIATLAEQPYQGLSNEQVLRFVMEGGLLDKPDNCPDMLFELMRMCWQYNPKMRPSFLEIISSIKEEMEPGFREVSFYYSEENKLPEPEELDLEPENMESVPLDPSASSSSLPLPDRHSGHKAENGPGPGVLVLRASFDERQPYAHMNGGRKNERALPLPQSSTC

For series [1], the target named is T1, insulin receptor (Homo sapiens, UniProt P06213). The series can be described thus: Insulin receptor phosphorylation assay, receptor transfected HEK293 cells. Type of series: cell-based. More on the design: expressed in transfected cells; host or cells: HEK293. The conditions noted are these: for in vitro phosphorylation activity at the insulin receptor (result in words): FIGS. 22A, 22B. The procedure:
Color development was stopped 5 min later by adding 0.05 ml 1 N HCl. Absorbance at 450 nm was measured on Titertek Multiscan MCC340 (ThermoFisher, Pittsburgh, Pa.).

Series [2] concerns the target T1, insulin receptor. Briefly: Insulin receptor binding assay (competition, scintillation proximity). The arrangement: expressed in transfected cells; plasma membrane fragments.
A short description of series [3]: Dipeptide half life on IGF1 (p-NH2-F)A19 analogs in PBS. Type of series: physicochemical. The conditions noted are these: buffer. The procedure:
Accordingly, the IGF1A chain alone was determined to be a good model for the study of pro-drug half life on IGF1 B:A (Y^B16L^B17) analog peptides. […] For simplicity, prodrug half lives were determined using only the IGF1 A chain in the absence of the B chain. The half lives of each propeptide was determined as described in Example 5.

As a reminder, the EC50 is the concentration giving half of the maximal effect. Turning to `CC[C@H](C)[C@H](NC(=O)CN)C(=O)N[C@H](C(=O)N[C@@H](CC(=O)O)C(=O)N[C@@H](CCC(=O)O)C(=O)N[C@H]1CSSC[C@@H]2NC(=O)[C@H](CO)NC(=O)[C@H](CCCNC(=N)N)NC(=O)[C@H](Cc3ccccc3)NC(=O)[C@H](CSSC[C@H](NC(=O)[C@H](CC(C)C)NC(=O)[C@@H](NC(=O)[C@H](CCC(=O)O)NC(=O)[C@@H]3CCCN3C(=O)CN)[C@@H](C)O)C(=O)NCC(=O)N[C@@H](C)C(=O)N[C@@H](CCC(=O)O)C(=O)N[C@@H](CC(C)C)C(=O)N[C@@H](C(C)C)C(=O)N[C@@H](CC(=O)O)C(=O)N[C@@H](C)C(=O)N[C@@H](CC(C)C)C(=O)N[C@@H](Cc3ccc(O)cc3)C(=O)N[C@@H](CC(C)C)C(=O)N[C@@H](C(C)C)C(=O)N[C@H](C(=O)NCC(=O)N[C@@H](CC(=O)O)C(=O)N[C@@H](CCCNC(=N)N)C(=O)NCC(=O)N[C@@H](Cc3ccccc3)C(=O)N[C@@H](Cc3ccc(O)cc3)C(=O)N[C@@H](Cc3ccccc3)C(=O)N[C@@H](CC(N)=O)C(=O)N[C@@H](CCCCN)C(=O)N3CCC[C@H]3C(=O)N[C@H](C(=O)N[C@@H](CCC(=O)O)C(=O)N[C@@H](CCC(=O)O)C(=O)O)[C@@H](C)O)CSSC[C@@H](C(=O)N[C@@H](C)C(N)=O)NC(=O)[C@H](Cc3ccc(O)cc3)NC(=O)[C@H](CCSC)NC(=O)[C@H](CCC(=O)O)NC(=O)[C@H](CC(C)C)NC(=O)[C@H](CCCNC(=N)N)NC(=O)[C@H](CCCNC(=N)N)NC(=O)[C@H](CC(C)C)NC(=O)[C@H](CC(=O)O)NC2=O)NC1=O)C(C)C` [IGF-1 A:B(E10 Y16L17)-E31E3 2B-COOH], the “IGF-1 Receptor % IGF-1 (in test)” value at IGF-1 receptor stood at 3.0%. Further, the EC50 at insulin receptor [1] (Insulin Receptor EC50:, total phosphorylation, Table 10) is 7 nM and 8.52 nM. For the same molecule, the “Insulin Receptor % Insulin” value on insulin receptor [1] (Table 10) is 18.1% and 31.7%. In addition, the Ratio at insulin receptor [2] (IGF-1 receptor IC50 over insulin receptor IC50) is recorded as 14.3. For the same molecule, on insulin receptor [2] (Table 9), the “Insulin Receptor % insulin (in test)” value worked out at 36.5% and the “Insulin Receptor % native insulin activity (0.6 nM)” value stood at 50.0%.
The half-life is the time needed for the level to fall by half in the phase considered. The low end stands for rapid decline, the high end for slow decline. As to `CC[C@H](C)[C@H](NC(=O)CN)C(=O)N[C@H](C(=O)N[C@@H](CC(=O)O)C(=O)N[C@@H](CCC(=O)O)C(=O)N[C@@H](C)C(=O)N[C@@H](C)C(=O)N[C@@H](Cc1ccccc1)C(=O)N[C@@H](CCCNC(=N)N)C(=O)N[C@@H](CO)C(=O)N[C@@H](C)C(=O)N[C@@H](CC(=O)O)C(=O)N[C@@H](CC(C)C)C(=O)N[C@@H](CCCNC(=N)N)C(=O)N[C@@H](CCCNC(=N)N)C(=O)N[C@@H](CC(C)C)C(=O)N[C@@H](CCC(=O)O)C(=O)N[C@@H](CCSC)C(=O)N[C@@H](Cc1ccc(NC(=O)[C@H](C)N(C)C(=O)[C@@H](N)CCCCNC(C)=O)cc1)C(=O)N[C@@H](C)C(=O)N[C@@H](C)C(N)=O)C(C)C` [K(acetyl) N-methyl Ala] (H-GIVDEAAFRSADLRRLEM[Phe(4-NH2)]([NMeA-εLys-Ac])AA-NH2; N-terminus assumed), the half-life in series [3] (Half Life (hr)) and in series [3] (Half Life (hr) PBS) was 1420 min in each case.
With `CC[C@H](C)[C@H](NC(=O)CN)C(=O)N[C@H](C(=O)N[C@@H](CC(=O)O)C(=O)N[C@@H](CCC(=O)O)C(=O)N[C@@H](C)C(=O)N[C@@H](C)C(=O)N[C@@H](Cc1ccccc1)C(=O)N[C@@H](CCCNC(=N)N)C(=O)N[C@@H](CO)C(=O)N[C@@H](C)C(=O)N[C@@H](CC(=O)O)C(=O)N[C@@H](CC(C)C)C(=O)N[C@@H](CCCNC(=N)N)C(=O)N[C@@H](CCCNC(=N)N)C(=O)N[C@@H](CC(C)C)C(=O)N[C@@H](CCC(=O)O)C(=O)N[C@@H](CCSC)C(=O)N[C@@H](Cc1ccc(NC(=O)[C@H](C)N(C)C(=O)[C@H](N)CCCCNC(C)=O)cc1)C(=O)N[C@@H](C)C(=O)N[C@@H](C)C(N)=O)C(C)C` [dK(acetyl) N-methyl Ala] (H-GIVDEAAFRSADLRRLEM[Phe(4-NH2)]([NMeA-d(εLys)-Ac])AA-NH2; N-terminus assumed), the half-life in series [3] (Half Life (hr)) and in series [3] (Half Life (hr) PBS) was 2120 min throughout.
For `CC[C@H](C)[C@H](NC(=O)CN)C(=O)N[C@H](C(=O)N[C@@H](CC(=O)O)C(=O)N[C@@H](CCC(=O)O)C(=O)N[C@@H](C)C(=O)N[C@@H](C)C(=O)N[C@@H](Cc1ccccc1)C(=O)N[C@@H](CCCNC(=N)N)C(=O)N[C@@H](CO)C(=O)N[C@@H](C)C(=O)N[C@@H](CC(=O)O)C(=O)N[C@@H](CC(C)C)C(=O)N[C@@H](CCCNC(=N)N)C(=O)N[C@@H](CCCNC(=N)N)C(=O)N[C@@H](CC(C)C)C(=O)N[C@@H](CCC(=O)O)C(=O)N[C@@H](CCSC)C(=O)N[C@@H](Cc1ccc(NC(=O)CN(C)C(=O)[C@H](N)CCCCNC(C)=O)cc1)C(=O)N[C@@H](C)C(=O)N[C@@H](C)C(N)=O)C(C)C` [dK(acetyl) Sar] (H-GIVDEAAFRSADLRRLEM[Phe(4-NH2)]([Sar-d(εLys)-Ac])AA-NH2; N-terminus assumed), the half-life was 978 min in series [3] (Half Life (hr)) and 1030 min in series [3] (Half Life (hr) PBS).

B1: DP20 C^0CTP: native proinsulin C peptide linked to a CTP peptide as linking peptide (SEQ ID NO: 74) (protein, listed as Homo sapiens)
chain: GEEEEEKGPEHLCGAHLVDALYLVCGDRGFYRREAEDLQVGQVELGGGPGAGSLQPLALEGSLQRKSSSSRAPPPSLPSPSRLPGPSDTPILPQKGIVDECCHRSCDLRRLENYCN
Turning to B1, the “in vitro phosphorylation activity at the insulin receptor (result in words)” value (“in vitro phosphorylation activity” for short) with insulin receptor [1] is on record as “appear to have activity at the insulin receptor”.

B2: DP20 CTPC^0: CTP peptide linked to native proinsulin C peptide as linking peptide (SEQ ID NO: 73) (protein, listed as Homo sapiens)
chain: GEEEEEKGPEHLCGAHLVDALYLVCGDRGFYSSSSRAPPPSLPSPSRLPGPSDTPILPQKRREAEDLQVGQVELGGGPGAGSLQPLALEGSLQRKGIVDECCHRSCDLRRLENYCN
B2: the “in vitro phosphorylation activity” value in the series with insulin receptor [1] is “appears more potent than DP20 C^0CTP”.

B3: DP20 2CTP: two end to end linked CTP peptides as the linking peptide (SEQ ID NO: 75) (protein, listed as Homo sapiens)
chain: GEEEEEKGPEHLCGAHLVDALYLVCGDRGFYSSSSRAPPPSLPSPSRLPGPSDTPILPQKSSSSRAPPPSLPSPSRLPGPSDTPILPQKGIVDECCHRSCDLRRLENYCN
As to B3, the “in vitro phosphorylation activity” value in the series with insulin receptor [1] is “appears to be active as an insulin agonist”.
